Test results as given in publication PMC5102573 (Clinical Pharmacology and Therapeutics, 2016).
“And” between values parts separate entries of the source, which are not always exact repeats. Equal entries are not always repeated. Structures can show the parent of a compound that is named as a salt. Where two headings read alike, the source gives them in different places.

Columns and labels:
[1] = rosuvastatin 10 mg q.d. with metformin 750 mg q.d.; cited from earlier work
[2] = 5 mg rosuvastatin and 600 mg rifampin; cited from earlier work
[3] = cocktail T1 vs alone, geometric mean ratio
[4] = cocktail T2 vs alone, geometric mean ratio
[5] = cocktail T3 vs alone, geometric mean ratio

C[C@H]1O[C@@H](O[C@H]2[C@@H](O)C[C@H](O[C@H]3[C@@H](O)C[C@H](O[C@H]4CC[C@@]5(C)[C@H](CC[C@@H]6[C@@H]5C[C@@H](O)[C@]5(C)[C@@H](C7=CC(=O)OC7)CC[C@]65O)C4)O[C@@H]3C)O[C@@H]2C)C[C@H](O)[C@@H]1O [Digoxin, digoxin]
urinary excretion parameters fe0-36 and CLR,0-36 between the treatments (Urinary excretion; alone vs cocktails): comparable | AUC0-tz decrease, cocktail T3 vs cocktail T1 (T3 vs T1): 22.6% | Cmax decrease, cocktail T3 vs cocktail T1 (T3 vs T1): 12.2% | median tmax (after all treatments (alone and cocktails)): 1.0 h | AUC0-tz decrease in cocktail vs drug alone (cocktail T3 vs alone (R)): 17% | Cmax decrease in cocktail vs drug alone (cocktail T3 vs alone (R)): 11.4% and 11%

CN(C)C(=N)N=C(N)N [Metformin, metformin hydrochloride]
CLR,0-24 decrease in cocktails vs drug alone (Urinary excretion; cocktails T1 and T3 vs alone): 10–18% | fe0-36 decrease in cocktails vs drug alone (Urinary excretion; cocktails T1 and T3 vs alone): 10–18%

CC(C)c1nc(N(C)S(C)(=O)=O)nc(-c2ccc(F)cc2)c1/C=C/[C@@H](O)C[C@@H](O)CC(=O)O [Rosuvastatin, rosuvastatin]
effect of metformin on AUCτ [1]: did not alter | increase of geometric mean Cmax,ss caused by metformin [1]: 23% | increase of plasma AUC0-24 with rifampin [2]: 5.2 fold | increase of plasma Cmax with rifampin [2]: 9.9 fold | CLR,0-36 in the different treatment periods (Urinary excretion; alone vs cocktails): comparable | fe0-36, gMean (Urinary excretion; analyte given in Test Cocktail 1): 7.93% | fe0-36, gMean (Urinary excretion; drug given alone, fraction excreted in urine 0-36 h): 5.45% | fe0-36 in cocktails T1, T2, and T3 compared to drug alone (Urinary excretion; in vivo): higher | AUC0-tz increase (higher) in cocktail vs drug alone [3]: 43.4% and 43% | AUC0-∞ increase in cocktail vs drug alone [3]: 27.8% | Cmax increase (higher) in cocktail vs drug alone [3]: 38.6% and 39% | AUC0-tz increase in cocktail vs drug alone [4]: 50.9% | AUC0-∞ increase in cocktail vs drug alone [4]: 37.4% | Cmax increase in cocktail vs drug alone [4]: 37.9% | AUC0-tz increase in cocktail vs drug alone [5]: 45.6% | AUC0-∞ increase in cocktail vs drug alone [5]: 23.3% | Cmax increase in cocktail vs drug alone [5]: 40.1% | AUC0-tz, Ratio T/R (relative bioavailability) (test cocktail T1 vs drug alone): 143.39% | AUC0-∞, Ratio T/R (relative bioavailability) (test cocktail T1 vs drug alone): 127.83% | Cmax, Ratio T/R (relative bioavailability) (test cocktail T1 vs drug alone): 138.57% | AUC0-tz, Ratio T/R (relative bioavailability) (test cocktail T2 vs drug alone): 150.87% | AUC0-∞, Ratio T/R (relative bioavailability) (test cocktail T2 vs drug alone): 137.43% | Cmax, Ratio T/R (relative bioavailability) (test cocktail T2 vs drug alone): 137.93% | AUC0-tz, Ratio T/R (relative bioavailability) (test cocktail T3 vs drug alone): 145.61% | AUC0-∞, Ratio T/R (relative bioavailability) (test cocktail T3 vs drug alone): 123.25% | Cmax, Ratio T/R (relative bioavailability) (test cocktail T3 vs drug alone): 140.05%
